The target in one test is T1, PTH1R (WT) (Homo sapiens, UniProt Q03431).
T1 construct: a flag-tag was fused to the N terminal of full-length PTH1R (WT or mutant); expressed in transfected cells; host or cells: HEK293T
T1 sequence (Q03431 27-593): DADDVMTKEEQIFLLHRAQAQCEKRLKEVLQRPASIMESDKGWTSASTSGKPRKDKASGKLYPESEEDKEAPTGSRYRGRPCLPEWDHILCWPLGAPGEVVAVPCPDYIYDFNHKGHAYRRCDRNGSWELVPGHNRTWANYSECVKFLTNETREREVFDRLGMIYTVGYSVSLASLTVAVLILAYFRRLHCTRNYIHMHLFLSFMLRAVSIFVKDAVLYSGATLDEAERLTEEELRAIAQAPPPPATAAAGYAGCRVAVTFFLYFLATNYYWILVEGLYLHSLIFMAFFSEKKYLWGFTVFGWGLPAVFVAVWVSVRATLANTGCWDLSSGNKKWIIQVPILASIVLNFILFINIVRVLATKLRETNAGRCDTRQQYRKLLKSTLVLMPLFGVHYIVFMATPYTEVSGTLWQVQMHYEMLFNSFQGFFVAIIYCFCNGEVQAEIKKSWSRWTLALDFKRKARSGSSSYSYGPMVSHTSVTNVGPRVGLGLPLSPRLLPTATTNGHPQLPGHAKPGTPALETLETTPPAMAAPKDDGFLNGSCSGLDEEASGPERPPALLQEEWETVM
Description: Wash out assay, duration of cAMP signaling. Type of test: cell-based. As to conditions: ligand 10^-6 M, 10 min ligand-on phase, 70 min wash-out phase, HEK293T, GloSensor. How it is done: Human embryonic kidney 293 T (HEK293T) cells were transfected with a plasmid mixture consisting of pcDNA3.1-flag-PTH1R (WT) and the cAMP biosensor GloSensor-22F (Promega) at a ratio of 2:1. After 24 h, transfected cells were plated onto a 96-well plate, which was treated with cell adherent reagent (Applygen) in advance. After another 12 h, cells were treated with Hank’s balanced salt solution for starvation and then incubated in CO2-independent media containing 4% GloSensor cAMP Reagent (Promega) at a volume of 40 μl per well and incubated for 20 min at RT before measurements for baseline luminescence (Spark Multimode microplate reader, TECAN). Next, test ligands (10 μl) were added at 10^−6 M that approximated the respective Emax (efficacy) value obtained for that “ligand- on” phase were similar for the different ligands. Then the development of cAMP-dependent luminescence was measured for 10 min (“ligand-on” phase); the plates were then removed from the plate reader, the cells were rinsed twice to remove unbound ligand, treated with fresh media containing luciferin, and luminescence was again recorded for an additional 70 min (“wash-out” phase)[18]. Finally, data were analyzed using GraphPad Prism.

The next test deals with PTH1R F424A mutant. Description: cAMP accumulation assay (GloSensor), PTH1R F424A. Type of test: cell-based, human. As to conditions: for ΔpEC50±SEM: relative to WT, n = 3 in triplicate; for ΔpEC50±SEM / Span±SEM: mean ± SEM; for Span±SEM: window between maximal response (Emax) and vehicle, n = 3. The procedure:
After 24 h, transfected cells were plated onto a 384-well plate, which was treated with cell adherent reagent (Applygen) in advance. After another 12 h, cells were treated with Hank’s balanced salt solution for starvation and then incubated in CO2-independent media containing 4% GloSensor cAMP Reagent (Promega) at a volume of 5 μl per well and incubated for 20 min at RT before measurements for baseline luminescence (Spark Multimode microplate reader, TECAN). Next, test ligands were added at different concentrations from 10^−6 to 10^−13 M before second measurement. Finally, data were normalized to 100% of the maximal PTH (1-34) response for WT PTH1R using a sigmoidal dose-response in GraphPad Prism.
Statistical analyses were performed on at least three individual datasets and analysed using GraphPad Prism software. […] Data are mean± s.e.m. from at least three independent experiments, performed in triplicates. ns, not significant, ^nsP > 0.01; ^*P < 0.01; ^**P < 0.001; ^***P < 0.0001 (one-way analysis of variance (ANOVA) followed by Dunnett’s test, compared with the response of the WT). For dose-response experiments, data were normalized and analyzed using nonlinear curve fitting for the log (agonist) versus response (three parameters) curves.
A general note: Changes in cAMP serve as a functional read-out for many G protein-coupled receptors.

As to “H-AVAEIQLMHQRAKWIQDARRRAFLHKLIAEIHTAEI-OH [LA-PTH, long-acting PTH analog, modified PTH/PTHrP hybrid]”, the “duration of cAMP signaling after wash-out” value (“duration of cAMP signaling” below) at PTH1R (WT) is “stronger activity of sustained signaling when compared with the PTH”. For the same substance, the “span (from the WT)” value is recorded as 141.3 with PTH1R F424A mutant (PTH1R F4246.56A, replicate 1); 117.4 in the test with PTH1R F424A mutant (PTH1R F4246.56A, replicate 2); 173.2 with PTH1R F424A mutant (PTH1R F4246.56A, replicate 3). Further, the “ΔpEC50 (from the WT)” value in the test on PTH1R F424A mutant (PTH1R F4246.56A, replicate 1) is reported as -1.04; in the test on PTH1R F424A mutant (PTH1R F4246.56A, replicate 2), -1.083; in the test with PTH1R F424A mutant (PTH1R F4246.56A, replicate 3), -1.36; in the test with PTH1R F424A mutant (replicate 1), -1.04; with PTH1R F424A mutant (replicate 2), -1.083; in the test with PTH1R F424A mutant (replicate 3), -1.36. Further, in the test on PTH1R F424A mutant, the “ΔpEC50±SEM” value is -1.16±0.1.
Turning to “H-AVSEHQLLHDKGKSIQDLRRRELLEKLL-{Aib}-KLHTA-NH2 [ABL, Abaloparatide, an analog of PTHrP, short-acting PTH1R agonist]”, the “duration of cAMP signaling” value on PTH1R (WT) is “obvious transient cAMP signaling”. The “span (from the WT)” value with PTH1R F424A mutant (PTH1R F4246.56A, replicate 1) was determined as 148.5; in the test on PTH1R F424A mutant (PTH1R F4246.56A, replicate 2) it was 140.3; with PTH1R F424A mutant (PTH1R F4246.56A, replicate 3) it was 170.8. The “ΔpEC50 (from the WT)” value with PTH1R F424A mutant (PTH1R F4246.56A, replicate 1) is listed as -1.943; in the test with PTH1R F424A mutant (PTH1R F4246.56A, replicate 2) it was -2.006; with PTH1R F424A mutant (PTH1R F4246.56A, replicate 3), -2.077; with PTH1R F424A mutant (replicate 1) it was -1.943; in the test with PTH1R F424A mutant (replicate 2), -2.006; in the test with PTH1R F424A mutant (replicate 3), -2.077. In addition, the “ΔpEC50±SEM” value in the test on PTH1R F424A mutant is on record as -2.01±0.04. For the same substance, in the test on PTH1R F424A mutant, the “Span±SEM” value turned out to be 153.20±9.11.
“H-SVSEIQLMHNLGKHLNSMERVEWLRKKLQDVHNF-OH [PTH, Teriparatide, human PTH 1-34, long-acting peptide agonist of PTH1R]”: the “duration of cAMP signaling” value on PTH1R (WT) was “potent prolonged cAMP signaling”. Moreover, the “span (from the WT)” value with PTH1R F424A mutant (PTH1R F4246.56A, replicate 1) was determined as 181.9; with PTH1R F424A mutant (PTH1R F4246.56A, replicate 2) it was 192.6; in the test on PTH1R F424A mutant (PTH1R F4246.56A, replicate 3), 166.2. Further, the “ΔpEC50 (from the WT)” value was -1.332 in the test with PTH1R F424A mutant (PTH1R F4246.56A, replicate 1); -1.492 with PTH1R F424A mutant (PTH1R F4246.56A, replicate 2); -1.466 with PTH1R F424A mutant (PTH1R F4246.56A, replicate 3); -1.332 with PTH1R F424A mutant (replicate 1); -1.492 in the test with PTH1R F424A mutant (replicate 2); -1.466 in the test on PTH1R F424A mutant (replicate 3). Also, in the test on PTH1R F424A mutant, the “ΔpEC50±SEM” value is listed as -1.43±0.05. Further, the “Span±SEM” value in the test on PTH1R F424A mutant came to 143.97±16.16.

Source of the values: article PMC9586930, “Molecular insights into the distinct signaling duration for the peptide-induced PTH1R activation” (Nature Communications, 2022).
